IC50 data for 18 compounds are collected here from US9115092B2, “Substituted quinazoline and pyrido-pyrimidine derivatives” (Asana Biosciences, LLC, priority 2010, dated 2015).

A value given as a limit tells only on which side of the number the result lay.

One assay deals with PC3 cells. Briefly: XTT assay for cell viability, PC3 cells. The format is cell-based, human. In outline: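 PC3 cells seeded at 1000 cells/well, grown 24 h, then exposed to serial dilutions of compound for 96 h. Viability read by XTT dye at 37° C, absorbance 465 nm. EC50 from sigmoidal dose-response fit.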
Assay [1] has as its target T1, PI3Kα (wild-type), P110/P85α (Homo sapiens, UniProt P42336).
T1 construct: made in house; host or cells: SF9 insect cells
Briefly: PI3 Kinase TR-FRET assay, PI3Kα (wild-type). The format is biochemical. In outline: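 Sf9-expressed His-purified P110/P85α (5 ng) preincubated 60 min RT with compound and PIP2 in buffer with 40 mM MgCl2, 5 mM DTT; reaction started with ATP (PIP2 and ATP both 10 μM), 30 min RT. PIP3 detected by TR-FRET displacement, 665/615 nm ratio; IC50 from dose-response curves.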

A further assay addresses T2, mTOR kinase (Homo sapiens, UniProt P42345).
T2 construct: purchased Millipore, USA
Briefly: mTOR kinase TR-FRET assay. It is filed as biochemical. The settings on record: read-out: mTO R. The procedure, abridged: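 Compounds preincubated 60 min with mTOR (5 ng) in HEPES pH 7.5, EGTA, MnCl2; ULight-p70 S6K Thr389 peptide (50 nM) and ATP (20 μM) then added, 60 min at room temperature. EDTA-stopped, Eu-anti-phospho antibody detection by TR-FRET (665/615 nm); IC50 from variable-slope sigmoidal fit.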

Assay [2] has as its system pS6RP(S235/236), PC3 cells. Briefly: In-cell Western assay, pS6RP(S235/236) in PC3 cells. It is filed as cell-based, human. As for the experimental part:
Cells from human prostate cancer cell line PC3 (American Type Culture Collection (ATCC), Manassas, Va. 20108 USA) were seeded at an optimal density of 22,000 cell/well in 96-well plates containing Ham's F12K medium (90 μL) and incubated overnight. The compound dilutions were carried out in 100% DMSO followed by a dilution in the medium. Test compounds were added in serial dilutions to the wells and incubated for 2 h. The cells were washed and fixed with 4% paraformaldehyde. After incubation at room temperature for 1 h in the dark, blocking was done for 2 h at room temperature. Primary antibodies for phosphorylated (p) AKT(5473) (phosphorylated at serine 473), pAKT(T308) (phosphorylated at threonine 308) and for pS6RP(S235/236) (phosphorylated at serine 235/236) (commercially available from Cell Signaling Technology®, whose protocol was followed for the in-cell western assay, were diluted to the required concentration and added to the corresponding wells followed by overnight incubation at 4° C. Eu-labeled rabbit (PE) (Perkin-Elmer USA catalog #AD0106) secondary antibody was added and incubated for 2 h at room temperature. Delfia® enhancement solution (cat #1244-105, Perkin Elmer USA) was subsequently added to the plate before taking the reading at 615 nm with excitation wavelength of 340 nm, after which 0.5 μg/mL of Hoechst® 33258 dye (Catalog #86140-5, Sigma) was added to the plate and fluorescence emission was read at 460 nm with 355 nm excitation, to evaluate the correction factor. IC50 values were calculated using a sigmoidal dose-response curve fit in GraphPad Prism® v5 software.

Where [3] appears, read: Homo sapiens, PC-3, cell viability.
The mark [4] stands for this setting: Homo sapiens, PC-3, In-cell Western.

T1 sequence (P42336 whole entry): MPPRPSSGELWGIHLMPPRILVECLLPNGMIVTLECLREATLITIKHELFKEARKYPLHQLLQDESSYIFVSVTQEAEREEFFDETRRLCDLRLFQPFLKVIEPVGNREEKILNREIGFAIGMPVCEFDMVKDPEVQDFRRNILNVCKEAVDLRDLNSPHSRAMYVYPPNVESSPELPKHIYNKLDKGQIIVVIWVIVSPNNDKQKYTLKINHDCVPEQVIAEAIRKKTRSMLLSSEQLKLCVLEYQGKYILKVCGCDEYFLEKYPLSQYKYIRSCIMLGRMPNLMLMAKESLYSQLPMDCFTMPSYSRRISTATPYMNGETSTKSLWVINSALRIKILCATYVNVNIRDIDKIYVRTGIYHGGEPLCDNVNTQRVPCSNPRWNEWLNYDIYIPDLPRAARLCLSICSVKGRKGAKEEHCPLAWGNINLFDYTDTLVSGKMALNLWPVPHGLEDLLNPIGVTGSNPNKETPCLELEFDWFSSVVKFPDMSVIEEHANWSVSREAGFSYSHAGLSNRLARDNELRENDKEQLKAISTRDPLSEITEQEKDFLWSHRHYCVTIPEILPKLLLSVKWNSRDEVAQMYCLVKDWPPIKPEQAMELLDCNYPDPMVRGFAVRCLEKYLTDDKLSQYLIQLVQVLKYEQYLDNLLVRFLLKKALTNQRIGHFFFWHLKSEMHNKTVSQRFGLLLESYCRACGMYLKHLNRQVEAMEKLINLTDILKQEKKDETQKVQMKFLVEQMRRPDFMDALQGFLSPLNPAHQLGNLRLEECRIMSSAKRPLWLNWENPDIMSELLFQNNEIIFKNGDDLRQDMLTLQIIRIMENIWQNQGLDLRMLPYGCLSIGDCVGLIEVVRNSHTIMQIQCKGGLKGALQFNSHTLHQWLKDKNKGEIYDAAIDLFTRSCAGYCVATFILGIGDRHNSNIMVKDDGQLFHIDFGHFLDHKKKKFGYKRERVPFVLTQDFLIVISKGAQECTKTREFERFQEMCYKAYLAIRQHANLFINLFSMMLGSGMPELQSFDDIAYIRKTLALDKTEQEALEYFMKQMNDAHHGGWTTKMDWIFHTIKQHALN
T1 sequence (P27986 whole entry partner): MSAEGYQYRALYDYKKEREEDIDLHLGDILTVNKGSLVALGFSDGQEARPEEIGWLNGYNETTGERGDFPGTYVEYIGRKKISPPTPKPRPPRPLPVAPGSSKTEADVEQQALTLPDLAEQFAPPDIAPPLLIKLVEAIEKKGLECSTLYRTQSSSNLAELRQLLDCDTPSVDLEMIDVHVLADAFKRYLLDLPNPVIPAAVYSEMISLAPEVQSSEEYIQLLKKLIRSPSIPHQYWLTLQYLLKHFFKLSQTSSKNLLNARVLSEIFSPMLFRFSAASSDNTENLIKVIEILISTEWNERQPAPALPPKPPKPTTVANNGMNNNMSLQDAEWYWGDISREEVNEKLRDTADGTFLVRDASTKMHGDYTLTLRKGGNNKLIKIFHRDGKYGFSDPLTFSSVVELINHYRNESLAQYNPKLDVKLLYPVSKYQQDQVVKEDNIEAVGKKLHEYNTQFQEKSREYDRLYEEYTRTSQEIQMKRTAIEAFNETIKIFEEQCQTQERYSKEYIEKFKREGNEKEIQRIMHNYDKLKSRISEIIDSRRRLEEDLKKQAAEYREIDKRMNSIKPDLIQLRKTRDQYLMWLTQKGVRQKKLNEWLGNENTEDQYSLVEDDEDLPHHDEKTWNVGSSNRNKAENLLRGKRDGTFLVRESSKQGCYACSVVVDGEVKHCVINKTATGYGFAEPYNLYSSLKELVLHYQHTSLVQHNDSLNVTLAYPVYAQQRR

With `CN(C)C(=O)c1ccc(NC(=O)Nc2ccc(-c3nc(N4CCOCC4)c4ccc(-c5ccncc5F)cc4n3)cc2)cc1` [Example 65, 4-(3-{4-[7-(3-fluoro-pyridin-4-yl)-4-morpholin-4-yl-quinazolin-2-yl]-phenyl}-ureido)-N,N-dimethyl-benzamide], the IC50 in the assay with PC3 cells (setting [3]) is 100 to 500 nM; in assay [1], < 50 nM; on mTOR kinase, < 50 nM; in assay [2] (setting [4]), < 100 nM.

In the case of `CC(=O)Nc1cncc(-c2ccc3c(N4CCOCC4)nc(-c4ccc(NC(=O)Nc5ccc(C(=O)N(C)C)cc5)cc4)nc3c2)c1` [Example 66, 4-(3-{4-[7-(5-acetylamino-pyridin-3-yl)-4-morpholin-4-yl-quinazolin-2-yl]-phenyl}-ureido)-N,N-dimethyl-benzamide], the IC50 with PC3 cells (setting [3]) was 100 to 500 nM; in assay [1] it was < 50 nM; on mTOR kinase, < 50 nM; in assay [2] (setting [4]), < 100 nM.

Turning to `CN1CCN(C(=O)c2ccc(NC(=O)Nc3ccc(-c4nc(N5CCOCC5)c5ccc(-c6ccncc6)cc5n4)cc3)cc2)CC1` [Example 69, 1-[4-(4-methyl-piperazine-1-carbonyl)-phenyl]-3-[4-(4-morpholin-4-yl-7-pyridin-4-yl-quinazolin-2-yl)-phenyl]-urea], the IC50 was 100 to 500 nM in the assay with PC3 cells (setting [3]), < 50 nM in assay [1], < 50 nM at mTOR kinase and < 100 nM in assay [2] (setting [4]).

Take `CN(C)CCN(C)C(=O)c1ccc(NC(=O)Nc2ccc(-c3nc(N4CCOCC4)c4ccc(-c5ccncc5)cc4n3)cc2)cc1` [Example 72, N-(2-dimethylamino-ethyl)-N-methyl-4-{3-[4-(4-morpholin-4-yl-7-pyridin-4-yl-quinazolin-2-yl)-phenyl]-ureido}-benzamide]: the IC50 was 100 to 500 nM in the assay on PC3 cells (setting [3]), < 50 nM in assay [1], < 50 nM at mTOR kinase and < 100 nM in assay [2] (setting [4]).

For `CN(C)C(=O)c1ccc(NC(=O)Nc2ccc(-c3nc(N4CCOCC4)c4ccc(-c5ccco5)cc4n3)cc2)cc1` [Example 80, N,N-dimethyl-4-(3-{4-[7-(furan-2-yl)-4-morpholin-4-yl-quinazolin-2-yl]-phenyl}-ureido)-benzamide], the IC50 in the assay with PC3 cells (cell viability) is < 100 nM; in assay [1] it was < 50 nM; on mTOR kinase it was < 50 nM; in assay [2] (In-cell Western), < 100 nM.

With `CN(C)C1CCN(C(=O)c2ccc(NC(=O)Nc3ccc(-c4nc(N5CCOCC5)c5ccc(-c6cccnc6F)cc5n4)cn3)cc2)CC1` [Example 81, 1-(4-(4-(dimethylamino)piperidine-1-carbonyl)phenyl)-3-(5-(7-(2-fluoropyridin-3-yl)-4-morpholine-quinazolin-2-yl)pyridin-2-yl)urea], the IC50 with PC3 cells (setting [3]) is 501 to 5000 nM; in assay [1], < 50 nM; at mTOR kinase it was < 50 nM; in assay [2] (setting [4]), < 100 nM.

Consider `CN(C)CCn1cc(-c2ccc3c(N4CCOCC4)nc(-c4ccc(NC(=O)Nc5ccc(C(=O)N(C)C)cc5)cc4)nc3c2)cn1` [Example 83, 4-(3-(4-(7-(1-(2-(dimethylamino)ethyl)-1H-pyrazol-4-yl)-4-morpholino-quinazolin-2-yl)phenyl)ureido)-N,N-dimethyl-benzamide], for which the IC50 in the assay on PC3 cells (setting [3]) is 201 to 10000 nM; in assay [1], 50 to 200 nM; at mTOR kinase, < 50 nM; in assay [2] (setting [4]) it was 201 to 10000 nM.

On to `CN(C)C(=O)c1ccc(NC(=O)Nc2ccc(-c3nc(N4CCOCC4)c4ccc(-c5cncnc5)cc4n3)cc2F)cc1` [Example 84, 4-(3-(2-fluoro-4-(4-morpholino-7-(pyrimidin-5-yl)quinazolin-2-yl)phenyl)ureido)-N,N-dimethyl-benzamide], for which the IC50 in the assay on PC3 cells (setting [3]) is 201 to 10000 nM; in assay [1] it was 50 to 200 nM; at mTOR kinase, < 50 nM; in assay [2] (setting [4]) it was 201 to 10000 nM.

Regarding `CN(C)C(=O)c1ccc(NC(=O)Nc2ccc(-c3nc(N4CCOCC4)c4ncc(-c5cnn(C)c5)cc4n3)cn2)cc1` [Example 85, N,N-dimethyl-4-(3-(5-(7-(1-methyl-1H-pyrazol-4-yl)-4-morpholino-pyrido[3,2-d]pyrimidin-2-yl)pyridin-2-yl)ureido)-benzamide], the IC50 in the assay with PC3 cells (setting [3]) was 201 to 10000 nM; in assay [1], < 50 nM; on mTOR kinase, < 50 nM; in assay [2] (setting [4]) it was 201 to 10000 nM.

Regarding `CN(C)C(=O)c1ccc(NC(=O)Nc2ccc(-c3nc(N4CCOCC4)c4ccc(-c5ccnnc5)cc4n3)cc2)cc1` [Example 86, N,N-dimethyl-4-(3-(4-(4-morpholino-7-(pyridazin-4-yl)quinazolin-2-yl)phenyl)ureido)-benzamide], the IC50 with PC3 cells (setting [3]) is 201 to 10000 nM; in assay [1], 50 to 200 nM; at mTOR kinase, < 50 nM; in assay [2] (setting [4]) it was 201 to 10000 nM.

For the compound `Cc1ccc(-c2cc3nc(-c4ccc(NC(=O)Nc5ccc(C(=O)N(C)C)cc5)cc4)nc(N4CCOCC4)c3cc2F)o1` [Example 87, 4-(3-(4-(6-fluoro-7-(5-methylfuran-2-yl)-4-morpholino-quinazolin-2-yl)phenyl)ureido)-N,N-dimethyl-benzamide], the IC50 in the assay with PC3 cells (setting [3]) was < 100 nM; in assay [1], 50 to 200 nM; at mTOR kinase, < 50 nM; in assay [2] (setting [4]), < 100 nM.

Consider `CNC(=O)c1ccc(NC(=O)Nc2ccc(-c3nc(N4CCOCC4)c4ccc(-c5cncnc5)cc4n3)cc2)cc1` [Example 88, N-methyl-4-(3-(4-(4-morpholino-7-(pyrimidin-5-yl)quinazolin-2-yl)phenyl)ureido)-benzamide], for which the IC50 in the assay on PC3 cells (setting [3]) was 201 to 10000 nM; in assay [1], 50 to 200 nM; on mTOR kinase it was < 50 nM; in assay [2] (setting [4]), < 100 nM.

As to `CNC(=O)c1ccc(NC(=O)Nc2ccc(-c3nc(N4CCOCC4)c4ncc(-c5cnn(C)c5)cc4n3)cc2)cc1` [Example 89, N-methyl-4-(3-(4-(7-(1-methyl-1H-pyrazol-4-yl)-4-morpholino-pyrido[3,2-d]pyrimidin-2-yl)phenyl)ureido)-benzamide], the IC50 in the assay with PC3 cells (setting [3]) was 201 to 10000 nM; in assay [1] it was < 50 nM; on mTOR kinase, < 50 nM; in assay [2] (setting [4]) it was 201 to 10000 nM.

Turning to `CN(C)C(=O)c1ccc(NC(=O)Nc2ccc(-c3nc(N4CCOCC4)c4ccc(-c5cccnc5F)cc4n3)cc2F)cc1` [Example 91, 4-(3-(2-fluoro-4-(7-(2-fluoropyridin-3-yl)-4-morpholino-quinazolin-2-yl)phenyl)ureido)-N,N-dimethyl-benzamide], the IC50 in the assay with PC3 cells (setting [3]) was 201 to 10000 nM; in assay [1], < 50 nM; on mTOR kinase it was < 50 nM; in assay [2] (setting [4]) it was 201 to 10000 nM.

Regarding `CN(C)C(=O)c1ccc(NC(=O)Nc2ccc(-c3nc(N4CCOCC4)c4ncc(-c5cnc(N)nc5)cc4n3)cc2)cc1` [Example 92, 4-(3-(4-(7-(2-aminopyrimidin-5-yl)-4-morpholino-pyrido[3,2-d]pyrimidin-2-yl)phenyl)ureido)-N,N-dimethyl-benzamide], the IC50 in the assay with PC3 cells (setting [3]) was 201 to 10000 nM; in assay [1] it was < 50 nM; on mTOR kinase, < 50 nM; in assay [2] (setting [4]), 201 to 10000 nM.

`Cc1ccncc1-c1cnc2c(N3CCOCC3)nc(-c3ccc(NC(=O)Nc4ccc(C(=O)N(C)C)cc4)cc3)nc2c1` [Example 93, N,N-dimethyl-4-(3-(4-(7-(4-methylpyridin-3-yl)-4-morpholino-pyrido[3,2-d]pyrimidin-2-yl)phenyl)ureido)-benzamide]: the IC50 in the assay with PC3 cells (setting [3]) is 201 to 10000 nM; in assay [1], < 50 nM; at mTOR kinase, < 50 nM; in assay [2] (setting [4]), 201 to 10000 nM.

For the compound `COc1ncc(-c2cnc3c(N4CCOCC4)nc(-c4ccc(NC(=O)Nc5ccc(C(=O)N(C)C)cc5)cc4)nc3c2)cn1` [Example 94, 4-(3-(4-(7-(2-methoxypyrimidin-5-yl)-4-morpholino-pyrido[3,2-d]pyrimidin-2-yl)phenyl)ureido)-N,N-dimethyl-benzamide], the IC50 is 201 to 10000 nM in the assay with PC3 cells (setting [3]), < 50 nM in assay [1], < 50 nM at mTOR kinase and 201 to 10000 nM in assay [2] (setting [4]).

For the compound `COc1cccc(-c2ccc3c(N4CCOCC4)nc(-c4ccc(NC(=O)Nc5ccc(C(=O)N(C)C)cc5)cc4)nc3c2)n1` [Example 95, 4-(3-(4-(7-(6-methoxypyridin-2-yl)-4-morpholino-quinazolin-2-yl)phenyl)ureido)-N,N-dimethyl-benzamide], the IC50 with PC3 cells (setting [3]) is < 100 nM; in assay [1], 50 to 200 nM; at mTOR kinase, 50 to 200 nM; in assay [2] (setting [4]), 501 to 5000 nM.
